Source: US20260209250A1, “CRYSTAL FORM OF KRAS G12D INHIBITOR AND PREPARATION METHOD THEREFOR” (priority 2022, published 2026)

Assays:
[1] = Long-term/accelerated stability; format: physicochemical
[2] = Crystal form stability study (influencing factor experiments); format: physicochemical; conditions: for Physical and chemical properties (conclusion of influencing factor experiments): high temperatures and high humidities for 30 days
Experimental: Samples of the crystal forms A, B, C, I, J, and K of the compound represented by formula (I) were taken, spread in open containers, and left to stand under conditions of light exposure (4500 Lux), high temperatures (40° C. and 60° C.), and high humidities (RH 75% and RH 92.5%) for 30 days to investigate their stability, and the results are shown in Table 16.

[3] = 40° C., 10 days, open container
[4] = 40° C., 30 days, open container
[5] = 60° C., 10 days, open container
[6] = 60° C., 30 days, open container
[7] = 75% RH, 10 days, open container
[8] = 75% RH, 30 days, open container
[9] = 92.5% RH, 5 days, open container
[10] = 92.5% RH, 10 days, open container
[11] = 92.5% RH, 30 days, open container
[12] = light exposure (4500 Lux), 5 days, open container
[13] = light exposure (4500 Lux), 10 days, open container
[14] = light exposure (4500 Lux), 30 days, open container

CCc1c(F)ccc2cc(O)cc(-c3nc4c5c(nc(OC[C@@]67CCCN6C[C@H](F)C7)nc5c3F)N3C[C@H]5CC[C@H](N5)[C@H]3CO4)c12 [Crystal form A, 5-Ethyl-6-fluoro-4-((5aS,6S,9R)-1-fluoro-12-(((2R,7aS)-2-fluorotetrahydro-1H-pyrrolizin-7a(5H)-yl)methoxy)-5a,6,7,8,9,10-hexahydro-5H-4-oxa-3,10a,11,13,14-pentaaza-6,9-methanonaphtho[1,8-ab]heptalen-2-yl)naphthalen-2-ol]
Purity % 1 month ([1]; 25° C./60% RH): 99.3% | Purity % 3 months ([1]; 25° C./60% RH): 99.3% | Purity % 6 months ([1]; 25° C./60% RH): 99.3% | Purity % Initial ([1]; 25° C./60% RH): 99.3% | Purity % 1 month ([1]; 40° C./75% RH): 99.3% | Purity % 3 months ([1]; 40° C./75% RH): 99.2% | Purity % 6 months ([1]; 40° C./75% RH): 99.1% | Purity % Initial ([1]; 40° C./75% RH): 99.3% | Color and state ([2]; 40° C., 5 days, open container): Off-white solid | Crystal form ([2]; 40° C., 5 days, open container): Did not change | Purity % ([2]; 40° C., 5 days, open container): 99.2% | Color and state [2, 3]: Off-white solid | Crystal form [2, 3]: Did not change | Purity % [2, 3]: 99.2% | Color and state [2, 4]: Off-white solid | Crystal form [2, 4]: Did not change | Purity % [2, 4]: 99.1% | Color and state ([2]; 60° C., 5 days, open container): Off-white solid | Crystal form ([2]; 60° C., 5 days, open container): Did not change | Purity % ([2]; 60° C., 5 days, open container): 99.1% | Color and state [2, 5]: Off-white solid | Crystal form [2, 5]: Did not change | Purity % [2, 5]: 99.0% | Color and state [2, 6]: Off-white solid | Crystal form [2, 6]: Did not change | Purity % [2, 6]: 98.5% | Color and state ([2]; 75% RH, 5 days, open container): Off-white solid | Crystal form ([2]; 75% RH, 5 days, open container): Did not change | Purity % ([2]; 75% RH, 5 days, open container): 99.3% | Color and state [2, 7]: Off-white solid | Crystal form [2, 7]: Did not change | Purity % [2, 7]: 99.3% | Color and state [2, 8]: Off-white solid | Crystal form [2, 8]: Did not change | Purity % [2, 8]: 99.3% | Color and state [2, 9]: Off-white solid | Crystal form [2, 9]: Did not change | Purity % [2, 9]: 99.3% | Color and state [2, 10]: Off-white solid | Crystal form [2, 10]: Did not change | Purity % [2, 10]: 99.4% | Color and state [2, 11]: Off-white solid | Crystal form [2, 11]: Did not change | Purity % [2, 11]: 99.3% | Color and state ([2]; Initial, 0 days): Off-white solid | Purity % ([2]; Initial, 0 days): 99.3% | Physical and chemical properties (conclusion of influencing factor experiments) [2]: good physical and chemical properties | Color and state [2, 12]: Off-white solid | Crystal form [2, 12]: Did not change | Purity % [2, 12]: 98.7% | Color and state [2, 13]: Off-white solid | Crystal form [2, 13]: Did not change | Purity % [2, 13]: 98.5% | Color and state [2, 14]: Pale yellow solid | Crystal form [2, 14]: Did not change | Purity % [2, 14]: 95.8%

CCc1c(F)ccc2cc(O)cc(-c3nc4c5c(nc(OC[C@@]67CCCN6C[C@H](F)C7)nc5c3F)N3C[C@H]5CC[C@H](N5)[C@H]3CO4)c12 [Crystal form B, 5-Ethyl-6-fluoro-4-((5aS,6S,9R)-1-fluoro-12-(((2R,7aS)-2-fluorotetrahydro-1H-pyrrolizin-7a(5H)-yl)methoxy)-5a,6,7,8,9,10-hexahydro-5H-4-oxa-3,10a,11,13,14-pentaaza-6,9-methanonaphtho[1,8-ab]heptalen-2-yl)naphthalen-2-ol]
Purity % 1 month ([1]; 25° C./60% RH): 99.4% | Purity % 3 months ([1]; 25° C./60% RH): 99.3% | Purity % 6 months ([1]; 25° C./60% RH): 99.3% | Purity % Initial ([1]; 25° C./60% RH): 99.4% | Purity % 1 month ([1]; 40° C./75% RH): 99.3% | Purity % 3 months ([1]; 40° C./75% RH): 99.2% | Purity % 6 months ([1]; 40° C./75% RH): 99.1% | Purity % Initial ([1]; 40° C./75% RH): 99.4% | Color and state ([2]; 40° C., 5 days, open container): Off-white solid | Crystal form ([2]; 40° C., 5 days, open container): Did not change | Purity % ([2]; 40° C., 5 days, open container): 99.3% | Color and state [2, 3]: Off-white solid | Crystal form [2, 3]: Did not change | Purity % [2, 3]: 99.3% | Color and state [2, 4]: Off-white solid | Crystal form [2, 4]: Did not change | Purity % [2, 4]: 99.2% | Color and state ([2]; 60° C., 5 days, open container): Off-white solid | Crystal form ([2]; 60° C., 5 days, open container): Did not change | Purity % ([2]; 60° C., 5 days, open container): 99.3% | Color and state [2, 5]: Off-white solid | Crystal form [2, 5]: Did not change | Purity % [2, 5]: 99.2% | Color and state [2, 6]: Off-white solid | Crystal form [2, 6]: Did not change | Purity % [2, 6]: 99.1% | Color and state ([2]; 75% RH, 5 days, open container): Off-white solid | Crystal form ([2]; 75% RH, 5 days, open container): Did not change | Purity % ([2]; 75% RH, 5 days, open container): 99.3% | Color and state [2, 7]: Off-white solid | Crystal form [2, 7]: Did not change | Purity % [2, 7]: 99.4% | Color and state [2, 8]: Off-white solid | Crystal form [2, 8]: Did not change | Purity % [2, 8]: 99.3% | Color and state [2, 9]: Off-white solid | Crystal form [2, 9]: Did not change | Purity % [2, 9]: 99.4% | Color and state [2, 10]: Off-white solid | Crystal form [2, 10]: Did not change | Purity % [2, 10]: 99.4% | Color and state [2, 11]: Off-white solid | Crystal form [2, 11]: Did not change | Purity % [2, 11]: 99.4% | Color and state ([2]; Initial, 0 days): Off-white solid | Purity % ([2]; Initial, 0 days): 99.4% | Physical and chemical properties (conclusion of influencing factor experiments) [2]: good physical and chemical properties | Color and state [2, 12]: Off-white solid | Crystal form [2, 12]: Did not change | Purity % [2, 12]: 99.0% | Color and state [2, 13]: Off-white solid | Crystal form [2, 13]: Did not change | Purity % [2, 13]: 99.1% | Color and state [2, 14]: Pale yellow solid | Crystal form [2, 14]: Did not change | Purity % [2, 14]: 97.6%
